Target: T1, porcine pancreatic lipase (Sus scrofa, UniProt P00591)
T1 construct: purchased U.S. Biochemical Corporation
T1 sequence (P00591 1-450): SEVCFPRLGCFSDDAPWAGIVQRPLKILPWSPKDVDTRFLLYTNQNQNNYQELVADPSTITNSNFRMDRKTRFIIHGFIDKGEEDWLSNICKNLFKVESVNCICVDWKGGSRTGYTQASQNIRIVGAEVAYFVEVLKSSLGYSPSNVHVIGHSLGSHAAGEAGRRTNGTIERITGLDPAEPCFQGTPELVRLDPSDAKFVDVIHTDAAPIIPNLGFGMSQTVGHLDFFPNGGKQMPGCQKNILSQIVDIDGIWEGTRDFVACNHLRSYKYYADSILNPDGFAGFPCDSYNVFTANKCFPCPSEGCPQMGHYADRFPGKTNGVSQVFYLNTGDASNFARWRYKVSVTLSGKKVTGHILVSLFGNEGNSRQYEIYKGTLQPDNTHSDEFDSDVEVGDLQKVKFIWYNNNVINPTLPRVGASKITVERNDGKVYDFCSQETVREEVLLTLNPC
Experiment: in vitro digestibility (lipase hydrolysis) screening test
Type: biochemical
Conditions: in 10 minutes with this enzyme system, 37° C., pH 7.1 phosphate buffer; triglyceride control
Method: This example outlines the procedure for estimating the in vitro digestibility of the polyvinyl esters of this invention.
Buffer: A pH 7.1 phosphate buffer is prepared by dissolving 6.8 g. KH2 PO4 in 1 L. of millipore filtered water (to yield 0.05M phosphate). Fifty mg. Ca(NO3)2 and 5.0 g. cholic acid (Na salt, an ox bile isolate from Sigma) are added to give 300 microM Ca^++ and 0.5% cholic acid in 0.05M phosphate. The pH is adjusted to approximately 7.1 with solid NaOH. Several drops of Baker "Resi-analyzed" toluene are added to prevent bacterial growth during storage at 3-5° C.
Lipase: About 15 mg./mL commercial porcine pancreatic lipase from U.S. Biochemical Corporation is dissolved in buffer.
(The proper concentration may be approximated by doubling the molecular weight of the lipid in question, dividing by 10, and diluting to the mark; this yields about 200 nanomoles per microliter.) This preparation affords the substrate to be used in the hydrolysis reactions. Fatty acids and glyceride standards from Nu Chek or Sigma are prepared for elution on TLC plates (prewashed with 1:1 chloroform/methanol) by diluting the substrate solution with 10:1 toluene (1 part substrate plus 9 parts toluene) in septum vials. […]

Compound: CCCCCCCC/C=C\CCCCCCCC(=O)OCC(COC(=O)CCCCCCC/C=C\CCCCCCCC)OC(=O)CCCCCCC/C=C\CCCCCCCC [triolein]
- hydrolysis by pancreatic lipase (in vitro digestibility): substantially hydrolyzed
